Laboratory results published in patent US10428080B2, “TBK/IKK inhibitor compounds and uses thereof” (Merck Patent GmbH, priority 2015, dated 2019).
Structures can show the parent of a compound that is named as a salt.

Key:
[1] = biological target: T1, IKKε (Homo sapiens, UniProt Q14164); test: IKKe Biochemical Assay; conditions: read-out: IKKε IC50
T1 sequence (Q14164 1-716): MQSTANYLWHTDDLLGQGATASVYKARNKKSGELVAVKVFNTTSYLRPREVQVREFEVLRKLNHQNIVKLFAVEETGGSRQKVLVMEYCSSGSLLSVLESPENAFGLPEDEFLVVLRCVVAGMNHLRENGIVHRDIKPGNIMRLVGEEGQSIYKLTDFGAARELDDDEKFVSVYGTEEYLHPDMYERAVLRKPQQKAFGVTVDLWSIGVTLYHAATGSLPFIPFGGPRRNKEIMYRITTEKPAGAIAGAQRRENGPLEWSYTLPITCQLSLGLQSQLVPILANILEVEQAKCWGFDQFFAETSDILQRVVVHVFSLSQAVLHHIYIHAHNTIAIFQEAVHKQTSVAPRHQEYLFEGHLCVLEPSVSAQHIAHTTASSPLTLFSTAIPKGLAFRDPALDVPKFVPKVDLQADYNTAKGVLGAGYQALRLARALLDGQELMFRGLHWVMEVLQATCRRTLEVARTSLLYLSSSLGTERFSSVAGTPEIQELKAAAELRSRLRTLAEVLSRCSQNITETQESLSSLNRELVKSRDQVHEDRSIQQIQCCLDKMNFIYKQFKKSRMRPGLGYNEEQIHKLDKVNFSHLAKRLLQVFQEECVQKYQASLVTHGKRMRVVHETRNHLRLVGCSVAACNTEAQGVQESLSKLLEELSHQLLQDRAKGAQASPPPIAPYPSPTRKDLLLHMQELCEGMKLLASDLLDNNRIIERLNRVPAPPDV
In short: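 Recombinant IKKε and substrate were incubated with compound (10-point 1:4 series, top 30 uM final, 1% DMSO) for 90 min at 25° C, then stopped. Substrate-to-product conversion was read by LabChip microfluidic mobility shift; 10 uM staurosporine served as full-inhibition wells.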

[2] = biological target: T2, TBK1 (Homo sapiens, UniProt Q9UHD2); test: TBK Biochemical Assay; conditions: read-out: TBK1 IC50
T2 sequence (Q9UHD2 1-729): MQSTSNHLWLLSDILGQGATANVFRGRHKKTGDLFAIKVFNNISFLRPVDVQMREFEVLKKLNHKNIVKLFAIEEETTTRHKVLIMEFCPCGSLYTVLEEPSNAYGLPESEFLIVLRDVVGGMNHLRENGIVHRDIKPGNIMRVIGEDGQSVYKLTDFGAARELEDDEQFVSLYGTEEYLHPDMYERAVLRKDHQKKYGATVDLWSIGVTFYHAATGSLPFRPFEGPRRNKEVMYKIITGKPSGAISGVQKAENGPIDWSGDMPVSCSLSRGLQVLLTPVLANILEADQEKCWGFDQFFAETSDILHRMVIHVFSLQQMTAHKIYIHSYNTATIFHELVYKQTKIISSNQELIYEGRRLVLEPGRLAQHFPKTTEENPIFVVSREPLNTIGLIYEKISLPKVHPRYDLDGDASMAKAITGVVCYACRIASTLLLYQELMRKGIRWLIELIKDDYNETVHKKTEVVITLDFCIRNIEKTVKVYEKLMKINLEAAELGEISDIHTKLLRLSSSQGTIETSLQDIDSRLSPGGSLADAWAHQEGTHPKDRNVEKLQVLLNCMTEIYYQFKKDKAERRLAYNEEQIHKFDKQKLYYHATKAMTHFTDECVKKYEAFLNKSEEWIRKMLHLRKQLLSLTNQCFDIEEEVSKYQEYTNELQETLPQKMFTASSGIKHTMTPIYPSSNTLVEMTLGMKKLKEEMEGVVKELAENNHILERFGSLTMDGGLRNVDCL
In short: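 TBK1 enzyme and substrate incubated with compounds (10-point 1:4 dilution, top 30 uM final, 1% DMSO) for 90 min at 25° C, then stopped. Substrate/product peaks read by microfluidic mobility-shift (Caliper LabChip); 10 uM staurosporine as full-inhibition control.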

IC50 [1] [nM]	IC50 [2] [nM]	Structure (SMILES)
< 100	< 100	COc1cc(C(=O)N(C)C)ccc1-c1cc2nccc(-c3ccc(OC4CCN(C)CC4(F)F)c(C#N)c3)c2o1 (stereo not shown) [Compound 97, 4-{7-[3-Cyano-4-(3,3-difluoro-1-methyl-piperidin-4-yloxy)-phenyl]-furo[3,2-b]pyridin-2-yl}-3-methoxy-N,N-dimethyl-benzamide]
< 100	< 100	COc1cc(C(=O)N(C)C)ccc1-c1cc2nccc(-c3ccc(O[C@H]4CCNC4)c(C#N)c3)c2o1 [Compound 121, 4-{7-[3-Cyano-4-((S)-pyrrolidin-3-yloxy)-phenyl]-furo[3,2-b]pyridin-2-yl}-3-methoxy-N,N-dimethyl-benzamide]
100 to 1000	1000 to 5000	CC(C)(C)OC(=O)Nc1ccc(-c2cc3nccc(-c4ccc(OC5CCOCC5)c(C#N)c4)c3o2)cc1 [Compound 183]
1000 to 5000	100 to 1000	COc1cc(C(=O)N(C)CCO)cnc1-c1cc2ncc(F)c(-c3ccc(OC4CCOCC4)c(C#N)n3)c2o1 [Compound 354, 6-[7-[6-cyano-5-(oxan-4-yloxy)pyridin-2-yl]-6-fluorofuro[3,2-b]pyridin-2-yl]-N-(2-hydroxyethyl)-5-methoxy-N-methylpyridine-3-carboxamide hydrochloride]
100 to 1000	1000 to 5000	CCOC(=O)c1ccc(-c2cc3nccc(-c4ccc(N5CC[C@H](F)C5)c(C#N)c4)c3o2)cc1 [Compound 187, 4-{7-[3-Cyano-4-((S)-3-fluoro-pyrrolidin-1-yl)-phenyl]-furo[3,2-b]pyridin-2-yl}-benzoic acid ethyl ester]
< 100	< 100	CN(C)C(=O)c1ccc(-c2cc3nccc(-c4ccc(OC5CCOCC5)c(C#N)c4)c3o2)nc1 [Compound 243, 6-(7-(3-cyano-4-(tetrahydro-2H-pyran-4-yloxy)phenyl)furo[3,2-b]pyridin-2-yl)-N,N-dimethylnicotinamide]
100 to 1000	100 to 1000	COc1cc(C(=O)N(C)C)ncc1-c1cc2nccc(-c3cc(C#N)c(OC4CCOCC4)cn3)c2o1 [Compound 386, 5-[7-[4-cyano-5-(oxan-4-yloxy)pyridin-2-yl]furo[3,2-b]pyridin-2-yl]-4-methoxy-N,N-dimethylpyridine-2-carboxamide]
100 to 1000	100 to 1000	COc1cc(C(=O)N(C)C)ccc1-c1cc2nccc(-c3ccc(OCC4CNC4)c(C#N)c3)c2o1 [Compound 165, 4-{7-[4-(Azetidin-3-ylmethoxy)-3-cyano-phenyl]-furo[3,2-b]pyridin-2-yl}-3-methoxy-N,N-dimethyl-benzamide]
< 100	< 100	COc1cc(C(=O)N2CCCC2C(F)F)ccc1-c1cc2nccc(-c3ccc(OC4CCOCC4)c(C#N)c3)c2o1 (stereo not shown) [Compound 89, 5-{2-[4-(2-Difluoromethyl-pyrrolidine-1-carbonyl)-2-methoxy-phenyl]-furo[3,2-b]pyridin-7-yl}-2-(tetrahydro-pyran-4-yloxy)-benzonitrile]
< 100	< 100	COc1cc(C(=O)N2CCCC(O)C2)ccc1-c1cc2nccc(-c3ccc(OC4CCOCC4)c(C#N)c3)c2o1 (stereo not shown) [Compound 22, 5-{2-[4-(3-Hydroxy-piperidine-1-carbonyl)-2-methoxy-phenyl]-furo[3,2-b]pyridin-7-yl}-2-(tetrahydro-pyran-4-yloxy)-benzonitrile]
100 to 1000	100 to 1000	COc1cc(C(=O)N(C)CCO)ncc1-c1cc2nccc(-c3cc(C#N)c(OC4CCOCC4)cn3)c2o1 [Compound 377, 5-[7-[4-cyano-5-(oxan-4-yloxy)pyridin-2-pyridin-2-yl]furo[3,2-b]pyridin-2-yl]-N-(2-hydroxyethyl)-4-methoxy-N-methylpyridine-2-carboxamide]
< 100	< 100	CN(C)C(=O)c1ccc(-c2cc3nccc(-c4ccc(OC5CCOCC5)c(C#N)c4)c3o2)c(Cl)c1 [Compound 239, 3-chloro-4-(7-(3-cyano-4-(tetrahydro-2H-pyran-4-yloxy)phenyl)furo[3,2-b]pyridin-2-yl)-N,N-dimethylbenzamide]
< 100	100 to 1000	N#Cc1cc(-c2ccnc3cc(-c4ccc(C(=O)O)cc4)oc23)ccc1OC1CC(CO)(CCl)C1 (stereo not shown) [Compound 162]
< 100	100 to 1000	COc1cc(C(=O)N[C@@H]2CCNC[C@@H]2F)ccc1-c1cc2nccc(-c3cc(F)c(NC4CCOCC4)c(C#N)c3)c2o1 (single isomer, unassigned) [Compound 254, 4-(7-(3-cyano-5-fluoro-4-(tetrahydro-2H-pyran-4-ylamino)phenyl)furo[3,2-b]pyridin-2-yl)-N-(3-fluoropiperidin-4-yl)-3-methoxybenzamide hydrochloride]
> 5000	> 5000	COc1cc(C(=O)N(C)CCO)cnc1-c1cc2ncc(C3CC3)c(-c3ccc(OC4CCOCC4)c(C#N)c3)c2o1 [Compound 341, 6-[7-[3-cyano-4-(oxan-4-yloxy)phenyl]-6-cyclopropylfuro[3,2-b]pyridin-2-yl]-N-(2-hydroxyethyl)-5-methoxy-N-methylpyridine-3-carboxamide hydrochloride]
< 100	< 100	COc1cc(C(=O)N(C)C2CCNC2)ccc1-c1cc2nccc(-c3ccc(OC4CCOCC4)c(C#N)c3)c2o1 (stereo not shown) [Compound 56, 4-{7-[3-Cyano-4-(tetrahydro-pyran-4-yloxy)-phenyl]-furo[3,2-b]pyridin-2-yl}-3-methoxy-N-methyl-N-pyrrolidin-3-yl-benzamide]
100 to 1000	100 to 1000	CN(C)C(=O)c1cnc(-c2cc3nccc(-c4cc(F)c(OC5CCOCC5)c(C#N)c4)c3o2)c(F)c1 [Compound 247, 6-(7-(3-cyano-5-fluoro-4-(tetrahydro-2H-pyran-4-yloxy)phenyl)furo[3,2-b]pyridin-2-yl)-5-fluoro-N,N-dimethylnicotinamide]
100 to 1000	100 to 1000	N#Cc1cc(-c2ccnc3cc(-c4ccc(C(=O)N[C@@H]5CCNC[C@@H]5F)cc4F)oc23)ccc1NC1CCOCC1 (stereo in doubt) [Compound 252, 4-(7-(3-cyano-4-(tetrahydro-2H-pyran-4-ylamino)phenyl)furo[3,2-b]pyridin-2-yl)-3-fluoro-N-(3-fluoropiperidin-4-yl)benzamide hydrochloride]
< 100	< 100	COc1cc(C(=O)N(C)CC(F)F)ccc1-c1cc2nccc(-c3ccc(OC4CCOCC4)c(C#N)c3)c2o1 [Compound 260]
100 to 1000	100 to 1000	CN(C)C(=O)c1ccc(-c2cc3nccc(-c4cc(F)c(N(C)C5CCOCC5)c(C#N)c4)c3o2)cc1 [Compound 225, 4-(7-(3-cyano-5-fluoro-4-(methyl(tetrahydro-2H-pyran-4-yl)amino)phenyl)furo[3,2-b]pyridin-2-yl)-N,N-dimethylbenzamide hydrochloride]
100 to 1000	100 to 1000	COc1cc(C(=O)N(C)C)ccc1-c1cc2nccc(-c3ccc(NC4CCCOC4)c(C#N)c3)c2o1 (stereo not shown) [Compound 164]
< 100	< 100	COc1cc(C(=O)NC2CC3CCC2C3)ccc1-c1cc2nccc(-c3ccc(OC4CCOCC4)c(C#N)c3)c2o1 (stereo not shown) [Compound 496]
100 to 1000	100 to 1000	CN(C)C(=O)c1ccc(-c2cc3nccc(-c4cc(F)c(NC5CCOCC5)c(C#N)c4)c3o2)nc1 [Compound 246]
